Data on 1 compound can be found in publication PMC5218480 (PLoS ONE, 2017).

This test concerns MV-4-11 cells. Briefly: Gene expression microarray analysis (Affymetrix PrimeView) and GSEA. The test is classed as cell-based, human. The following applies: ProbeSet 11716999_a_at; LIST D. Also noted: RFU PODN (11730768_x_at) / Fold change /veh PODN (11730768_x_at) / RFU LINC00158 (11744669_a_at) / Fold change /veh LINC00158 (11744669_a_at) / RFU DUSP10 (11751237_a_at) / Fold change /veh DUSP10 (11751237_a_at) / RFU ID3 (11757404_x_at) / Fold change /veh ID3 (11757404_x_at) / RFU PLEKHG5 (11737974_s_at) / Fold change /veh PLEKHG5 (11737974_s_at) / RFU LRRC4B (11730491_at) / Fold change /veh LRRC4B (11730491_at) / RFU GIMAP4 (11747438_a_at) / Fold change /veh GIMAP4 (11747438_a_at) / RFU KRT8 (11758183_x_at) / Fold change /veh KRT8 (11758183_x_at) / RFU CNN1 (11734310_a_at) / Fold change /veh CNN1 (11734310_a_at) / RFU VPS37D (11726825_at) / Fold change /veh VPS37D (11726825_at) / RFU C10orf10 (11716522_x_at) / Fold change /veh C10orf10 (11716522_x_at) / RFU KIR2DL2 /// KIR2DL4 /// KIR2DL5A /// KIR2DL5B /// KIR2DS1 /// KIR2DS2 /// KIR2DS3 /// KIR2DS4 /// KIR3DL3 /// KIR3DL3 /// KIR3DS1 (11738374_at) / Fold change /veh KIR2DL2 /// KIR2DL4 /// KIR2DL5A /// KIR2DL5B /// KIR2DS1 /// KIR2DS2 /// KIR2DS3 /// KIR2DS4 /// KIR3DL3 /// KIR3DL3 /// KIR3DS1 (11738374_at) / RFU C1QL1 (11718748_at) / Fold change /veh C1QL1 (11718748_at) / RFU TMPRSS4 (11747572_a_at) / Fold change /veh TMPRSS4 (11747572_a_at) / RFU HAMP (11756126_x_at) / Fold change /veh HAMP (11756126_x_at) / RFU RNFT2 (11725882_a_at) / Fold change /veh RNFT2 (11725882_a_at) / RFU NR4A2 (11747474_a_at) / Fold change /veh NR4A2 (11747474_a_at) / RFU ABCC12 (11746883_a_at) / Fold change /veh ABCC12 (11746883_a_at) / RFU TMEM136 (11760407_x_at) / Fold change /veh TMEM136 (11760407_x_at) / RFU CLDN22 /// WWC2 (11732394_at) / Fold change /veh CLDN22 /// WWC2 (11732394_at) / RFU HLA-DPB1 (11760878_x_at) / Fold change /veh HLA-DPB1 (11760878_x_at) / RFU SPINT1 (11716480_a_at) / Fold change /veh SPINT1 (11716480_a_at) / RFU GAP43 (11754022_s_at) / Fold change /veh GAP43 (11754022_s_at) / RFU A4GNT (11735810_at) / Fold change /veh A4GNT (11735810_at) / RFU PRB3 (11715151_x_at) / Fold change /veh PRB3 (11715151_x_at) / RFU TUBB4B (11761932_at) / Fold change /veh TUBB4B (11761932_at) / RFU CAPN14 (11732068_a_at) / Fold change /veh CAPN14 (11732068_a_at) / RFU TMCC2 (11721928_a_at) / Fold change /veh TMCC2 (11721928_a_at) / RFU IRGQ (11745062_a_at) / Fold change /veh IRGQ (11745062_a_at) / RFU FAM174B (11720279_a_at) / Fold change /veh FAM174B (11720279_a_at) / RFU TMPRSS4 (11748680_a_at) / Fold change /veh TMPRSS4 (11748680_a_at) / RFU FAM212B (11763350_a_at) / Fold change /veh FAM212B (11763350_a_at) / RFU PLEKHG5 (11743358_a_at) / Fold change /veh PLEKHG5 (11743358_a_at) / RFU ZSCAN30 (11745921_a_at) / Fold change /veh ZSCAN30 (11745921_a_at) / RFU CMKLR1 (11741424_a_at) / Fold change /veh CMKLR1 (11741424_a_at) / RFU LOC101060620 /// MAPK8IP1 (11723275_at) / Fold change /veh LOC101060620 /// MAPK8IP1 (11723275_at) / RFU SPTSSB (11747773_x_at) / Fold change /veh SPTSSB (11747773_x_at) / RFU PRSS12 (11739890_at) / Fold change /veh PRSS12 (11739890_at) / RFU BIN1 (11741810_x_at) / Fold change /veh BIN1 (11741810_x_at) / RFU WNT11 (11732464_a_at) / Fold change /veh WNT11 (11732464_a_at) / RFU C10orf10 (11716521_a_at) / Fold change /veh C10orf10 (11716521_a_at) / RFU C5orf56 (11738089_at) / Fold change /veh C5orf56 (11738089_at) / RFU CYB561 (11721691_x_at) / Fold change /veh CYB561 (11721691_x_at) / RFU ANKRD19P (11752326_a_at) / Fold change /veh ANKRD19P (11752326_a_at) / RFU OR2T12 /// OR2T33 /// OR2T8 (11738714_s_at) / Fold change /veh OR2T12 /// OR2T33 /// OR2T8 (11738714_s_at) / RFU VCAN (11748164_a_at) / Fold change /veh VCAN (11748164_a_at) / RFU JSRP1 (11732532_at) / Fold change /veh JSRP1 (11732532_at) / RFU KRTAP10-11 (11738290_x_at) / Fold change /veh KRTAP10-11 (11738290_x_at) / RFU MYO3A (11730013_a_at) / Fold change /veh MYO3A (11730013_a_at) / RFU EBF3 (11725865_a_at) / Fold change /veh EBF3 (11725865_a_at) / RFU CAMK2N1 (11719241_x_at) / Fold change /veh CAMK2N1 (11719241_x_at) / RFU C5orf56 (11738088_a_at) / Fold change /veh C5orf56 (11738088_a_at) / RFU OLFML3 (11715873_a_at) / Fold change /veh OLFML3 (11715873_a_at) / RFU LOC100653217 /// NTM (11731650_a_at) / Fold change /veh LOC100653217 /// NTM (11731650_a_at) / RFU MAPK11 (11762145_a_at) / Fold change /veh MAPK11 (11762145_a_at) / RFU FIZ1 (11724087_x_at) / Fold change /veh FIZ1 (11724087_x_at) / RFU OASL (11726364_x_at) / Fold change /veh OASL (11726364_x_at) / RFU SOX15 (11748057_x_at) / Fold change /veh SOX15 (11748057_x_at) / RFU CD79A (11719716_a_at) / Fold change /veh CD79A (11719716_a_at) / RFU HIST1H1D (11736915_at) / Fold change /veh HIST1H1D (11736915_at) / RFU CASKIN2 (11723855_a_at) / Fold change /veh CASKIN2 (11723855_a_at) / RFU LOC730098 (11760151_x_at) / Fold change /veh LOC730098 (11760151_x_at) / RFU OR4N2 (11742367_at) / Fold change /veh OR4N2 (11742367_at) / RFU PRRT2 (11749266_a_at) / Fold change /veh PRRT2 (11749266_a_at) / RFU SNX32 (11753110_a_at) / Fold change /veh SNX32 (11753110_a_at) / RFU CDHR5 (11726645_a_at) / Fold change /veh CDHR5 (11726645_a_at) / RFU RCAN1 (11760418_a_at) / Fold change /veh RCAN1 (11760418_a_at) / RFU FAM167A (11723789_a_at) / Fold change /veh FAM167A (11723789_a_at) / RFU FAM26E (11764081_at) / Fold change /veh FAM26E (11764081_at) / RFU ISYNA1 (11749810_s_at) / Fold change /veh ISYNA1 (11749810_s_at) / RFU ACY1 (11761880_at) / Fold change /veh ACY1 (11761880_at) / RFU 11764098_at / Fold change /veh 11764098_at / RFU SAMD14 (11745864_x_at) / Fold change /veh SAMD14 (11745864_x_at) / RFU NPB (11741838_a_at) / Fold change /veh NPB (11741838_a_at) / RFU TMPRSS6 (11731388_a_at) / Fold change /veh TMPRSS6 (11731388_a_at) / RFU KRTAP10-2 (11738614_at) / Fold change /veh KRTAP10-2 (11738614_at) / RFU ARHGAP8 /// PRR5-ARHGAP8 (11727945_x_at) / Fold change /veh ARHGAP8 /// PRR5-ARHGAP8 (11727945_x_at) / RFU KRTAP5-7 /// NADSYN1 (11734609_at) / Fold change /veh KRTAP5-7 /// NADSYN1 (11734609_at) / RFU RASL12 (11751679_a_at) / Fold change /veh RASL12 (11751679_a_at) / RFU CDKN2B (11736163_a_at) / Fold change /veh CDKN2B (11736163_a_at) / RFU PRF1 (11729649_at) / Fold change /veh PRF1 (11729649_at) / RFU, ZNF638 /// ZNF638-IT1 / Fold change vs veh, ZNF638 /// ZNF638-IT1 / RFU, PANK3 / Fold change vs veh, PANK3 / RFU, SH3YL1 / Fold change vs veh, SH3YL1 / RFU, ZEB2 / Fold change vs veh, ZEB2 / RFU, NRIP1 / Fold change vs veh, NRIP1 / RFU, PTTG1IP / Fold change vs veh, PTTG1IP / RFU, CAPN2 / Fold change vs veh, CAPN2 / RFU, MED14 / Fold change vs veh, MED14 / RFU, SNORA58 / Fold change vs veh, SNORA58 / RFU, C1orf63 / Fold change vs veh, C1orf63 / RFU, LRRFIP1 / Fold change vs veh, LRRFIP1 / RFU, NDUFAF7 / Fold change vs veh, NDUFAF7 / RFU, SLC12A2 / Fold change vs veh, SLC12A2 / RFU, IBTK / Fold change vs veh, IBTK / RFU, ESF1 / Fold change vs veh, ESF1 / Fold change vs veh, TMEM50B / RFU, TAOK1 / Fold change vs veh, TAOK1 / RFU, ACBD3 / Fold change vs veh, ACBD3 / RFU, TMA16 / Fold change vs veh, TMA16 / RFU, RWDD3 / Fold change vs veh, RWDD3 / RFU, BCAT1 / Fold change vs veh, BCAT1 / RFU, EDEM3 / Fold change vs veh, EDEM3 / RFU, TMEM33 / Fold change vs veh, TMEM33 / RFU, WDR75 / Fold change vs veh, WDR75 / RFU, AHCTF1 / Fold change vs veh, AHCTF1 / RFU, TFRC / Fold change vs veh, TFRC / RFU, ZDHHC17 / Fold change vs veh, ZDHHC17 / RFU, NOM1 / Fold change vs veh, NOM1 / RFU, ARL8B / Fold change vs veh, ARL8B / RFU, ZBTB11 / Fold change vs veh, ZBTB11 / RFU, TAMM41 / Fold change vs veh, TAMM41 / RFU, KIAA1704 /// LOC100996395 / Fold change vs veh, KIAA1704 /// LOC100996395 / RFU, ING1 / Fold change vs veh, ING1 / RFU, TRMT61B / Fold change vs veh, TRMT61B / RFU, FUBP3 / Fold change vs veh, FUBP3 / RFU, TP53 / Fold change vs veh, TP53 / RFU, TNKS2 / Fold change vs veh, TNKS2 / RFU, ZFP14 / Fold change vs veh, ZFP14 / RFU, ACTR2 / Fold change vs veh, ACTR2 / RFU, PPP3R1 / Fold change vs veh, PPP3R1 / RFU, PIK3R1 / Fold change vs veh, PIK3R1 / RFU, HNRNPA1 / Fold change vs veh, HNRNPA1 / RFU, RNF170 / Fold change vs veh, RNF170 / RFU, ZNF28 / Fold change vs veh, ZNF28 / RFU, RNGTT / Fold change vs veh, RNGTT / RFU, OGT / Fold change vs veh, OGT / RFU, BRD1 / Fold change vs veh, BRD1 / RFU, MARS / Fold change vs veh, MARS / RFU, ZNF655 / Fold change vs veh, ZNF655 / RFU, FAHD1 / Fold change vs veh, FAHD1 / RFU, BDP1 / Fold change vs veh, BDP1 / RFU, LRRCC1 / Fold change vs veh, LRRCC1 / RFU, ARID1A / Fold change vs veh, ARID1A / RFU, ZNF146 / Fold change vs veh, ZNF146 / RFU, ZNF330 / Fold change vs veh, ZNF330 / RFU, GPN3 / Fold change vs veh, GPN3 / RFU, C9orf123 / Fold change vs veh, C9orf123 / RFU, N4BP2L2 / Fold change vs veh, N4BP2L2 / RFU, ARFIP1 / Fold change vs veh, ARFIP1 / RFU, FAM179B / Fold change vs veh, FAM179B / RFU, BCL10 / Fold change vs veh, BCL10 / RFU, UHRF1BP1L / Fold change vs veh, UHRF1BP1L / RFU, BET1 / Fold change vs veh, BET1 / RFU, CNOT2 / Fold change vs veh, CNOT2 / RFU, ZNF268 / Fold change vs veh, ZNF268 / Fold change vs veh, ZNF507 / RFU, DGCR2 / Fold change vs veh, DGCR2 / RFU, WDSUB1 / Fold change vs veh, WDSUB1 / Fold change vs veh, HSP90B1 /// MIR3652 / RFU, ADSS / Fold change vs veh, ADSS / RFU, GK / Fold change vs veh, GK / RFU, ZNF148 / Fold change vs veh, ZNF148 / RFU, TAF9 / Fold change vs veh, TAF9 / RFU, SLC1A5 / Fold change vs veh, SLC1A5 / RFU, SLMO2 / Fold change vs veh, SLMO2 / RFU, ABCC4 / Fold change vs veh, ABCC4 / RFU, LOC101060439 /// RAP1B / Fold change vs veh, LOC101060439 /// RAP1B / RFU, RFX7 / Fold change vs veh, RFX7 / RFU, GTPBP10 / Fold change vs veh, GTPBP10 / RFU, CNEP1R1 / Fold change vs veh, CNEP1R1 / RFU, BIVM-ERCC5 /// ERCC5 / Fold change vs veh, BIVM-ERCC5 /// ERCC5 / RFU, ILF3 / Fold change vs veh, ILF3 / RFU 11762660_at / Fold change /veh 11762660_at / RFU VCAN (11757783_s_at) / Fold change /veh VCAN (11757783_s_at) / RFU DDX43 (11728927_at) / Fold change /veh DDX43 (11728927_at) / RFU KRT8 (11758188_x_at) / Fold change /veh KRT8 (11758188_x_at) / RFU NKD1 (11759106_at) / Fold change /veh NKD1 (11759106_at) / RFU SRD5A1 (11742802_a_at) / Fold change /veh SRD5A1 (11742802_a_at) / RFU TPSAB1 /// TPSB2 (11721975_s_at) / Fold change /veh TPSAB1 /// TPSB2 (11721975_s_at) / RFU GSTM3 (11746129_a_at) / Fold change /veh GSTM3 (11746129_a_at) / RFU IL23R (11737362_x_at) / Fold change /veh IL23R (11737362_x_at) / RFU TMEM51 (11727254_a_at) / Fold change /veh TMEM51 (11727254_a_at) / RFU PIWIL2 (11732686_x_at) / Fold change /veh PIWIL2 (11732686_x_at) / RFU ORM1 (11744905_x_at) / Fold change /veh ORM1 (11744905_x_at) / RFU CCDC152 (11743942_at) / Fold change /veh CCDC152 (11743942_at) / RFU ECM1 (11717891_a_at) / Fold change /veh ECM1 (11717891_a_at) / RFU IL23R (11748794_a_at) / Fold change /veh IL23R (11748794_a_at) / RFU TNFAIP8L3 (11732012_x_at) / Fold change /veh TNFAIP8L3 (11732012_x_at) / RFU MBOAT4 (11741988_at) / Fold change /veh MBOAT4 (11741988_at) / RFU 11764193_at / Fold change /veh 11764193_at / RFU TMEM53 (11763286_at) / Fold change /veh TMEM53 (11763286_at) / RFU MAGEB2 (11727129_at) / Fold change /veh MAGEB2 (11727129_at) / RFU TMEM200A (11744735_a_at) / Fold change /veh TMEM200A (11744735_a_at) / RFU CCDC152 (11751479_a_at) / Fold change /veh CCDC152 (11751479_a_at) / RFU FAM211A (11726209_a_at) / Fold change /veh FAM211A (11726209_a_at) / RFU RGS16 (11746705_a_at) / Fold change /veh RGS16 (11746705_a_at) / RFU VCAN (11755009_s_at) / Fold change /veh VCAN (11755009_s_at) / RFU RHOB (11743442_s_at) / Fold change /veh RHOB (11743442_s_at) / RFU RGS16 (11720943_a_at) / Fold change /veh RGS16 (11720943_a_at) / RFU RGS16 (11720944_at) / Fold change /veh RGS16 (11720944_at) / RFU, VPS4B / Fold change vs veh, VPS4B / RFU, CREB1 / Fold change vs veh, CREB1 / RFU, DNAJC13 / Fold change vs veh, DNAJC13 / RFU, GNAQ / Fold change vs veh, GNAQ / RFU, CDK5R1 / Fold change vs veh, CDK5R1 / RFU, ZRANB3 / Fold change vs veh, ZRANB3 / RFU, CUL4A / Fold change vs veh, CUL4A / RFU, CCNY / Fold change vs veh, CCNY / RFU, UFL1 / Fold change vs veh, UFL1 / RFU, COG3 / Fold change vs veh, COG3 / RFU, DIAPH2 / Fold change vs veh, DIAPH2 / RFU, SKA2 / Fold change vs veh, SKA2 / RFU, AFF3 / Fold change vs veh, AFF3 / RFU, LMF1 / Fold change vs veh, LMF1 / RFU, IPO11 / Fold change vs veh, IPO11 / RFU, DFFB / Fold change vs veh, DFFB / RFU, FOXP1 / Fold change vs veh, FOXP1 / RFU, CARD8 / Fold change vs veh, CARD8 / RFU, STRN3 / Fold change vs veh, STRN3 / RFU, ADK / Fold change vs veh, ADK / RFU, RASSF2 / Fold change vs veh, RASSF2 / RFU, WIPF1 / Fold change vs veh, WIPF1 / RFU, LARP1B / Fold change vs veh, LARP1B / RFU, RASA1 / Fold change vs veh, RASA1 / RFU, RB1 / Fold change vs veh, RB1 / RFU, PPFIA1 / Fold change vs veh, PPFIA1 / RFU, MAT2A / Fold change vs veh, MAT2A / RFU, CCT5 / Fold change vs veh, CCT5 / RFU, WDR92 / Fold change vs veh, WDR92 / RFU, CUX1 / Fold change vs veh, CUX1 / RFU, TTC7A / Fold change vs veh, TTC7A / RFU, TMEM135 / Fold change vs veh, TMEM135 / RFU, DEPTOR / Fold change vs veh, DEPTOR / RFU, CPM / Fold change vs veh, CPM / RFU, DNAJB6 / Fold change vs veh, DNAJB6 / RFU, CACNA2D3 / Fold change vs veh, CACNA2D3 / RFU, DTX4 / Fold change vs veh, DTX4 / RFU, TFCP2 / Fold change vs veh, TFCP2 / RFU, GMCL1 /// GMCL1P1 / Fold change vs veh, GMCL1 /// GMCL1P1 / RFU, AEBP2 / Fold change vs veh, AEBP2 / RFU, SNHG1 /// SNORD22 /// SNORD25 /// SNORD26 /// SNORD27 /// SNORD28 /// SNORD29 /// SNORD31 / Fold change vs veh, SNHG1 /// SNORD22 /// SNORD25 /// SNORD26 /// SNORD27 /// SNORD28 /// SNORD29 /// SNORD31 / Fold change (Aza/veh), C12orf56 (ProbeSet 11735607_a_at) / Fold change (ACY-1035/veh), C12orf56 (ProbeSet 11735607_a_at) / Fold change (Aza/veh), FGFR1OP (ProbeSet 11751329_s_at) / Fold change (ACY-1035/veh), FGFR1OP (ProbeSet 11751329_s_at) / Fold change (Aza/veh), VPS36 (ProbeSet 11739960_a_at) / Fold change (ACY-1035/veh), VPS36 (ProbeSet 11739960_a_at) / RFU SYPL1 (11715823_x_at) / Fold change /veh SYPL1 (11715823_x_at) / RFU IGFBP7 (11715501_s_at) / Fold change /veh IGFBP7 (11715501_s_at) / RFU REEP3 (11722064_at) / Fold change /veh REEP3 (11722064_at) / RFU IGLL1 (11728026_x_at) / Fold change /veh IGLL1 (11728026_x_at): dose or concentration left out as unconfirmed.

Structures are written as SMILES.

As to `Nc1ccc(-c2cccs2)cc1NC(=O)c1ccc2c(c1)cc(C1CC1)n2CCN1CCOCC1` [ACY-1035], the “RFU, RASA1” value is recorded as 200.63 RFU.
